Laboratory results published in patent US20260042755A1, “GPR6 INVERSE AGONISTS” (MapLight Therapeutics, Inc., priority 2022, published 2026).

Columns and labels:
Format in all cases: cell-based
hERG = target: T1, hERG (Homo sapiens, UniProt Q12809); experiment: hERG assay (whole-cell manual patch clamp, stably-transfected HEK293/hERG cells); settings: tail current, test concentrations 0.1-30 μM, read-out: hERG Assay GMean IC50
T1 construct: expressed in transfected cells; host or cells: HEK293
Description: Stably-transfected HEK293/hERG cells were seeded on poly-ornithine coated glass coverslip and incubated 3-24 h in 35 mm dishes before transferring to the recording chamber. The recording chamber on the stage of a Nikon inverted microscope is continuously perfused with extracellular solution (1-1.5 ml/min). Electrodes were pulled, polished and filled with intracellular solution (tip resistance ˜3-5MΩ). After establishing a tight seal (resistances 1GΩ) between pipette tip and cell membrane, a brief suction is applied to rupture the patched membrane to establish the whole-cell patch clamp configuration. Cells are voltage clamped at −80 mV. The cell was first depolarized to +40 mV for 2s to activate hERG current, and then clamped to −40 mV for 3s to record a tail current. Test articles in various concentrations controlled by a voltage command 8 pinch valve superfusion system were delivered to the proximity of the test cell to record hERG current changes under different conditions with recording done within 30 min.
Intracellular solution (in mM): 130 KCl, 1.0 MgCl2, 5.0 EGTA, 10 HEPES, 5.0 Mg-ATP; adjust pH to 7.25 with 1M KOH; osmolarity approximately at 280 mOsm. Extracellular solution (in mM): 137 NaCl, 1.8 CaCl2, 1.0 MgCl2, 4.0 KCl, 10 Glucose, 10 HEPES; adjust pH to 7.4 with 1 M NaOH; osmolarity approximately at 295 mOsm. Original compound was dissolved in 100% DMSO, then serial diluted with DMSO to respective 1000× of test concentration to make DMSO sub-stocks. The DMSO sub-stocks were diluted 1000 fold to testing solutions (0.1, 0.3, 1, 3, 10, and 30 μM) using extracellular solution. Rapid exposure to test compound was achieved by utilizing a multichannel solenoid-operated flow system. Testing compounds were sequentially applied in increasing order of concentrations after initial application of vehicle solution on EPC-10 manual patch clamping device with the following: • Amplifier: HEKA EPC-10 USB • Nikon Ti-S Inverted Microscope • MP-285/R micromanipulator system • DAD-8VCPP voltage command Pinch valve superfusion system • TMC Shock Absorption Platform • Peristaltic Pump • Sutter Puller • Vapor pressure osmometer • Temperature controller

GPR3 = target: T2, GPR3 (Homo sapiens, UniProt P46089); experiment: GPR3 antagonist functional cAMP assay (LANCE Ultra cAMP TR-FRET, CHO cells stably expressing GPR3)
T2 construct: expressed in transfected cells; host or cells: CHO cells
Procedure, shortened: (§1)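 Compounds, at 0.1% final DMSO, acted on the cells for 45 minutes at 37 °C in the presence of the phosphodiesterase inhibitor Ro 20-1724 (150 μM). After lysis and detection, plates were shaken 1 h at room temperature and emission at 665 nm was recorded. Normalized data gave IC50 values.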

GPR6 = target: T3, GPR6 (Homo sapiens, UniProt P46095); experiment: GPR6 antagonist functional cAMP assay (LANCE Ultra cAMP TR-FRET, CHO cells stably expressing GPR6)
T3 construct: expressed in transfected cells; host or cells: CHO cells
Procedure, shortened: as §1

[1] = CHO cells stably expressing GPR3, cAMP assay
[2] = CHO cells stably expressing GPR6, cAMP assay

T2 sequence (P46089 whole entry, species assumed): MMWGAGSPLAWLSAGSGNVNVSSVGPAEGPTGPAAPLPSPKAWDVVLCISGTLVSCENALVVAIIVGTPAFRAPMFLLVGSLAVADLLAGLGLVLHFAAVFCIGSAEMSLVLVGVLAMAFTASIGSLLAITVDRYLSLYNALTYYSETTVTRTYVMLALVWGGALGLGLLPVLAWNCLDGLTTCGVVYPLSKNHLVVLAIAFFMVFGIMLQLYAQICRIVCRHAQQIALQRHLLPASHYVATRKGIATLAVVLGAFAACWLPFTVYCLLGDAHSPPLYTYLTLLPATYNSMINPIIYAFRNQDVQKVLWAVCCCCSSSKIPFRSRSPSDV
T1 sequence (Q12809 whole entry): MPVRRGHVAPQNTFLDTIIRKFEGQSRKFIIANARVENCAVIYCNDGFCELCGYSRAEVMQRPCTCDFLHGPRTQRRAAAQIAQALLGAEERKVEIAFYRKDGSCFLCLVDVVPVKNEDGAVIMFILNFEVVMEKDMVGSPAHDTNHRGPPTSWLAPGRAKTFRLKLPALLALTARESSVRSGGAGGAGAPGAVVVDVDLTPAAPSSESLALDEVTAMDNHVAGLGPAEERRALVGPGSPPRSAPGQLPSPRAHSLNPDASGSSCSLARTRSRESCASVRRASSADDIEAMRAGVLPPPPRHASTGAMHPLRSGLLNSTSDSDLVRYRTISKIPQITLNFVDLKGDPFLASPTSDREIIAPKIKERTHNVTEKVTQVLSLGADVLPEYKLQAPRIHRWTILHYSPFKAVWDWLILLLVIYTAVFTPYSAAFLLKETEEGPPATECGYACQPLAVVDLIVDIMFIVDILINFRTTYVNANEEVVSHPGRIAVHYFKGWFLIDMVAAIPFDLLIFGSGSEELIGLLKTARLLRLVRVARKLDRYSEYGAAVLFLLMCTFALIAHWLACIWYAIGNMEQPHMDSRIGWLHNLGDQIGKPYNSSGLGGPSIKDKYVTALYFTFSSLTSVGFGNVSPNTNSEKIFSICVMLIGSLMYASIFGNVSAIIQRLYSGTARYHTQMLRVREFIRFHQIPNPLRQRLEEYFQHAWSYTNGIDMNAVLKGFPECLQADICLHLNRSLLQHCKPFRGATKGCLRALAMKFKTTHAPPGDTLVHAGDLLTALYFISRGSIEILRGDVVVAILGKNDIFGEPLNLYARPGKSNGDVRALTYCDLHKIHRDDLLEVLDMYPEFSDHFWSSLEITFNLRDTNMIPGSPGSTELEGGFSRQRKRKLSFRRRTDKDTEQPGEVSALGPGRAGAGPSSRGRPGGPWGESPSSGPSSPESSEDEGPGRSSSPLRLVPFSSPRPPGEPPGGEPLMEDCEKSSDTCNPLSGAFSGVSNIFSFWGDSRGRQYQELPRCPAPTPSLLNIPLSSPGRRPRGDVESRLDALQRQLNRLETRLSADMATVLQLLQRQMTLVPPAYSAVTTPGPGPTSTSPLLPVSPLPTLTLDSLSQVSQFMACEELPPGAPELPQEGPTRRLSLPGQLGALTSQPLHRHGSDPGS
T3 sequence (P46095 whole entry): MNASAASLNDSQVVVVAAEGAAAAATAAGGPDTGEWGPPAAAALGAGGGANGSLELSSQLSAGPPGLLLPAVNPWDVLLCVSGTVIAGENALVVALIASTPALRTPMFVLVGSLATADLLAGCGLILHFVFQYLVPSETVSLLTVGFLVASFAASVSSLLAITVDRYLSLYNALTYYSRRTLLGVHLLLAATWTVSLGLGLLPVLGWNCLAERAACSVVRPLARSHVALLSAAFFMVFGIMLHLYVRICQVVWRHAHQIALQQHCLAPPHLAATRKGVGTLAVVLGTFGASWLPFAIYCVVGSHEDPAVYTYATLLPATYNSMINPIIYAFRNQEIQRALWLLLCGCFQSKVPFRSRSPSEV

| SMILES | IC50 (hERG) | IC50 (GPR3; [1]) | IC50 (GPR6; [2]) | IC50 (GPR3; procedure of Example 24) | IC50 (GPR6; procedure of Example 24) |
| --- | --- | --- | --- | --- | --- |
| CCn1cc(-c2nc3cnc([C@H](O)C(C)(C)O)cc3nc2N2CCN(Cc3ccc(F)cc3F)CC2)cn1 (single isomer, unassigned) [Compound 575] | 21700 nM | 1000 to 30000 nM | < 100 nM | – | – |
| CC(C)(O)[C@@H](O)c1cc2nc(N3CCN(Cc4ccc(F)cc4F)CC3)c(-c3cnn(C4CC4)c3)nc2cn1 (single isomer, unassigned) [Compound 577] | 13600 nM | 1000 to 30000 nM | 100 to 1000 nM | – | – |
| CC(C)(O)C(O)c1cc2nc(-c3cnn(CF)c3)c(N3CCN(Cc4ccccc4F)CC3)nc2cn1 (single isomer, unassigned) [Compound 707] | > 30000 nM | – | – | 1000 to 30000 nM | 100 to 1000 nM |
| CC(C)(O)[C@](C)(O)c1cc2nc(-c3cnn(CF)c3)c(N3CCN(Cc4ccccc4F)CC3)nc2cn1 (single isomer, unassigned) [Compound 716] | 24300 nM | – | – | 1000 to 30000 nM | 100 to 1000 nM |
| Nc1cc2nc(-c3cnn(CF)c3)c(N3CCN(Cc4ccc(F)cc4F)CC3)nc2cn1 [Compound 794, 3-{4-[(2,4-difluorophenyl)methyl]-1-piperazinyl}-2-[1-(fluoromethyl)-4-pyrazolyl]-1,4,6-triaza-7-naphthylamine] | – | – | – | 1000 to 30000 nM | 100 to 1000 nM |
| O=c1cc2nc(-c3cnn(CF)c3)c(N3CCN(Cc4ccc(F)cc4F)CC3)nc2c[nH]1 [Compound 796, 3-{4-[(2,4-difluorophenyl)methyl]-1-piperazinyl}-2-[1-(fluoromethyl)-4-pyrazolyl]-1,4,6-triaza-7(6H)-naphthalenone] | – | – | – | 1000 to 30000 nM | 100 to 1000 nM |
| CC(C)(O)COc1cc2nc(-c3cnn(CF)c3)c(N3CCN(Cc4ccc(F)cc4F)CC3)nc2cn1 [Compound 798, 1-(3-{4-[(2,4-difluorophenyl)methyl]-1-piperazinyl}-2-[1-(fluoromethyl)-4-pyrazolyl]-1,4,6-triaza-7-naphthyloxy)-2-methyl-2-propanol] | – | – | – | 1000 to 30000 nM | 100 to 1000 nM |
